# Starred links: 1 amine or outer side, 2 acyl side, 3 side chain; linkers in the order of their positions; H or OH if unused. Positions of bridges follow the written chain, without caps; N, C: chain ends. Non-standard residues stand in square brackets, D forms with d. Residues, ends and D or L forms follow the SMILES beside them. 1Nal = N[C@@H](Cc1cccc2ccccc12)C(=O)O; TBMB = c1c(C[*:1])cc(C[*:3])cc1C[*:2]; Tle = CC(C)(C)[C@H](N)C(=O)O; βAla = NCCC(=O)O; Sar = CNCC(=O)O
# Columns and labels:
# [1] = test system: catalytic domain (MT1); experiment: Binding to catalytic domain of MT1
# [2] = target: MMP15 (Homo sapiens, UniProt P51511); experiment: Binding to related MMP family member MMP15
# [3] = target: MMP16 (Homo sapiens, UniProt P51512); experiment: Binding to related MMP family member MMP16
# [4] = target: MMP24 (Homo sapiens, UniProt Q9Y5R2); experiment: Binding to related MMP family member MMP24
# [5] = target: T1, MMP1 (Homo sapiens, UniProt P03956); experiment: Binding to related MMP family member MMP1
# T1 sequence (P03956 100-469): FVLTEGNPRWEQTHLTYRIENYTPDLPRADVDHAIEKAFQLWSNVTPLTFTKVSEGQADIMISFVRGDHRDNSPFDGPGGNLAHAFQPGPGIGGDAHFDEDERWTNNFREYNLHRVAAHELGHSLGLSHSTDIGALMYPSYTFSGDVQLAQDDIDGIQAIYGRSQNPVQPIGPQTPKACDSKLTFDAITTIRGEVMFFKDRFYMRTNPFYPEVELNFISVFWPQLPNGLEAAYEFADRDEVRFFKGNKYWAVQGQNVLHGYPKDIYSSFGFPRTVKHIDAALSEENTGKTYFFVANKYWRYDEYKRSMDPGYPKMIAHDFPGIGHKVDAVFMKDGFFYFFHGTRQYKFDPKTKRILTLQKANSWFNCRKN
# [6] = target: T2, Pro-MMP1 (Homo sapiens, UniProt P03956); experiment: Binding to related MMP family member Pro-MMP1
# T2 sequence (P03956 20-469 limits assumed): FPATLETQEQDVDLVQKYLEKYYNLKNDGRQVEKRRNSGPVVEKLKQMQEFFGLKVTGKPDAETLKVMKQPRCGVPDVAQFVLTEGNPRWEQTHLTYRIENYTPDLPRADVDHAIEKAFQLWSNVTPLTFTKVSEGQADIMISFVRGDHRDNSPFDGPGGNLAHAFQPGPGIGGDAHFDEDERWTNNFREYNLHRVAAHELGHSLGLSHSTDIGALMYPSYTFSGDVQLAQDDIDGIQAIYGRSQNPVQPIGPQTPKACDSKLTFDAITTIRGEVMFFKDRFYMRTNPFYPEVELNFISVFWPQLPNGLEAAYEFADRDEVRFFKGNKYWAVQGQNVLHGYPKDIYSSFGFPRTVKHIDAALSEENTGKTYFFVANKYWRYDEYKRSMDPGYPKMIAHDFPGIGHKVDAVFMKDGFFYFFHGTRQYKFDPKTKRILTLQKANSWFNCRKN
# [7] = target: T3, MMP2 (Homo sapiens, UniProt P08253); experiment: Binding to related MMP family member MMP2
# T3 sequence (P08253 110-660): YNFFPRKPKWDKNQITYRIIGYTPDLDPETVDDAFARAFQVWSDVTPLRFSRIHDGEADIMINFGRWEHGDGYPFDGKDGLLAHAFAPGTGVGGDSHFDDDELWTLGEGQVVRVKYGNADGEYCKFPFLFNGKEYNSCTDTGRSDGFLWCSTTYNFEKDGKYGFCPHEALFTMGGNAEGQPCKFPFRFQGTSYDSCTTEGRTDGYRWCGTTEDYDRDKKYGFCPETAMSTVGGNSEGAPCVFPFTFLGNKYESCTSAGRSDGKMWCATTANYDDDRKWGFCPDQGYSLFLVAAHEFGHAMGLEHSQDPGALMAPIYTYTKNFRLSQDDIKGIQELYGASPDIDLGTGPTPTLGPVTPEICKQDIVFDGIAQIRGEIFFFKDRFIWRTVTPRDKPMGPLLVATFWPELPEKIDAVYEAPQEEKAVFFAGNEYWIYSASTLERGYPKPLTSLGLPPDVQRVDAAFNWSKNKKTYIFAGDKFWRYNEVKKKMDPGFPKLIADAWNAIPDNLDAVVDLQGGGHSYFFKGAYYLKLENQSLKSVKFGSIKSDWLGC
# [8] = target: MT1 (Homo sapiens, UniProt P50281); experiment: Effect on catalytic activity of MT1 in vitro; type: biochemical
# [9] = target: T1, MMP1; experiment: Effect on MMP1 catalytic activity; type: biochemical; conditions: in vitro
# [10] = target: T3, MMP2; experiment: Effect on MMP2 catalytic activity; type: biochemical; conditions: in vitro
# [11] = target: MMP9 (Homo sapiens, UniProt P14780); experiment: Effect on MMP9 catalytic activity; type: biochemical; conditions: in vitro
# [12] = test system: cell migration or invasion; experiment: Effect on cell migration or invasion; type: cell-based; conditions: in vitro
# Chain of MMP24 (Q9Y5R2 156-645, species assumed): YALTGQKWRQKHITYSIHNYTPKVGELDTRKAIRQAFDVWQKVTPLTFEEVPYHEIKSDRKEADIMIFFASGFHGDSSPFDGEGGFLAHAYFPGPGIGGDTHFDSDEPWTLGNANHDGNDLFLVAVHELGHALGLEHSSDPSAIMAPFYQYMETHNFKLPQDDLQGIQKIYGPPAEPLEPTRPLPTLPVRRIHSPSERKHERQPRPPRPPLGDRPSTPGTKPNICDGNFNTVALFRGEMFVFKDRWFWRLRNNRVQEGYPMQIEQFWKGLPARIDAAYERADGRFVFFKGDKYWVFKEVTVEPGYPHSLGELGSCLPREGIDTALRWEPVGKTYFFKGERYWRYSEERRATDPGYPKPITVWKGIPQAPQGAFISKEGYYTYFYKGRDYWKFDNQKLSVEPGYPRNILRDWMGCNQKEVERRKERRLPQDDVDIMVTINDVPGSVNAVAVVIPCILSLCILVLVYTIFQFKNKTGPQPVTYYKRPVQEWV
# Chain of MMP16 (P51512 120-607, species assumed): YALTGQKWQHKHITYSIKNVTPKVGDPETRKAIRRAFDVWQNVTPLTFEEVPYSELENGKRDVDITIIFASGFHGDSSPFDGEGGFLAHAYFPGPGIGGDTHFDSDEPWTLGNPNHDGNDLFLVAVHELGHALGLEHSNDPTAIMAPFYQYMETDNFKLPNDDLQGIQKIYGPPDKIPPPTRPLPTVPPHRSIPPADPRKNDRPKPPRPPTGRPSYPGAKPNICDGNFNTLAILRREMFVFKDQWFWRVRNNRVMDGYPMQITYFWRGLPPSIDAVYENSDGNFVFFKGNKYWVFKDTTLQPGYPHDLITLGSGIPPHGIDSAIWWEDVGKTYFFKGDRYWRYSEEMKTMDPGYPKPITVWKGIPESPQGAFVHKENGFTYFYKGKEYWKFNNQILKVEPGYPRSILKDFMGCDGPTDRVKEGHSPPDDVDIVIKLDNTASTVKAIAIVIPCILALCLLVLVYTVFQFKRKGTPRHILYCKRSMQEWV
# Chain of MMP9 (P14780 94-707, species assumed): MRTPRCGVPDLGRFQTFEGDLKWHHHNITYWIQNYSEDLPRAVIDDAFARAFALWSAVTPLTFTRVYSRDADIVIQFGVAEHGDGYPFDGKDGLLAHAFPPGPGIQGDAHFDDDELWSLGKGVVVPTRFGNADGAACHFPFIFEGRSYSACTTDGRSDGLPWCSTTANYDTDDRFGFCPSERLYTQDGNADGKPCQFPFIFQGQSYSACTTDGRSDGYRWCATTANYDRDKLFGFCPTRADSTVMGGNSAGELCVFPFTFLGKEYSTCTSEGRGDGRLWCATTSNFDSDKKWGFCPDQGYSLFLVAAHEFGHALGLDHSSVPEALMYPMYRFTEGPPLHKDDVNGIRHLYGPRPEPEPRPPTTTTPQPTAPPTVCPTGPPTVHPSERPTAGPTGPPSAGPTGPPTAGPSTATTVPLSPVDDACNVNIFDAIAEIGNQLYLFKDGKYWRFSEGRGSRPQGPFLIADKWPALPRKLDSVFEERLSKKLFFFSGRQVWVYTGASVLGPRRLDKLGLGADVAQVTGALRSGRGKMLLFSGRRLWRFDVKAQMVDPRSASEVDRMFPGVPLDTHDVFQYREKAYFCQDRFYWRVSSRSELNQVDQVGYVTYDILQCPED
# Chain of MMP15 (P51511 132-669, species assumed): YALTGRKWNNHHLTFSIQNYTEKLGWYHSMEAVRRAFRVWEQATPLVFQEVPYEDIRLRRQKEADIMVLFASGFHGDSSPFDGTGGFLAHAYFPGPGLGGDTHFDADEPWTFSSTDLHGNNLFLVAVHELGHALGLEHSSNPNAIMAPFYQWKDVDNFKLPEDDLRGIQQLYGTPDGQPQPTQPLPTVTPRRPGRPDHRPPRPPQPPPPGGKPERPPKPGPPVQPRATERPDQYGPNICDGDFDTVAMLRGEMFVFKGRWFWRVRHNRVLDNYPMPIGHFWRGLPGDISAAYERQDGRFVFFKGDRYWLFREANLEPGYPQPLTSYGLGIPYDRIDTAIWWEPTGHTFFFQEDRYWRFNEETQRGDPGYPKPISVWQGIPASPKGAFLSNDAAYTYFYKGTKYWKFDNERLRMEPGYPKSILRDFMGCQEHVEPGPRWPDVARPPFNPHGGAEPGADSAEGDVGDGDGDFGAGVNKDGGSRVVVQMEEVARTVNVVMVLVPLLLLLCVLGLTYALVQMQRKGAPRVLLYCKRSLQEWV
smiles,measurement,setting,value
C[C@H](NC(=O)CN(C)C(=O)CN(C)C(=O)CN(C)C(=O)CN(C)C(=O)CN(C)C(=O)CN(C)C(=O)CN(C)C(=O)CN(C)C(=O)CN(C)C(=O)CN(C)C(=O)CCN)C(=O)N[C@H]1CSCc2cc3cc(c2)CSC[C@H](NC(=O)[C@@H](C)NC(=O)[C@H](Cc2cccc4ccccc24)NC(=O)[C@H](CCC(=O)O)NC(=O)[C@H](CC(N)=O)NC(=O)[C@@H](C)NC1=O)C(=O)N[C@@H](CCC(=O)O)C(=O)N[C@@H](CC(=O)O)C(=O)N[C@@H](Cc1ccccc1)C(=O)N[C@@H](Cc1ccc(O)cc1)C(=O)N[C@@H](CC(=O)O)C(=O)N[C@@H](C(C)(C)C)C(=O)N[C@H](C(N)=O)CSC3 [N241] (H-[βAla][Sar][Sar][Sar][Sar][Sar][Sar][Sar][Sar][Sar][Sar]AC[dA]NE[1Nal][dA]CEDFYD[Tle]C-NH2; linker 13-19-26 via TBMB; N-terminus and C-terminus assumed),binding to the catalytic domain,[1],no binding
same,binding toward MMP15,[2],no binding
same,binding toward MMP16,[3],no binding
same,binding toward MMP24,[4],no binding
same,binding toward MMP1,[5],no binding
same,binding toward Pro-MMP1,[6],no binding
same,binding toward MMP2,[7],no binding
same,impact on the catalytic activity of the protease (MT1),[8],no direct impact
same,impact on MMP1 catalytic activity,[9],no direct impact
same,impact on MMP2 catalytic activity,[10],no direct impact
same,impact on MMP9 catalytic activity,[11],no direct impact
same,impact on cell migration or invasion,[12],no direct impact
